According to US9243281B2, “Neuroprotective chemicals and methods for identifying and using same” (Board of Regents of The University of Texas System, priority 2013, dated 2016):

Test system: nicotinamide salvage pathway in U2OS cells
Assay: nicotinamide flux analysis with 14C-labeled nicotinamide (TLC)
Assay type: cell-based
Conditions: 0.5 μM doxorubicin 48 h, then 6 h 14C-nicotinamide
Protocol: FIGS. 6A-6B. P7C3-A20 enhances the flux of nicotinamide through the salvage pathway. (FIG. 6A) Cells were pre-treated with 0.5 μM doxorubicin for 48 hours, followed by 6 hours treatment with ^14C-nicotinamide in the presence of the indicated amount of P7C3-A20. Metabolites were extracted and analyzed by thin layer chromatography. (FIG. 6B) Quantification of the relative intensities of NAD and NMN from the thin layer chromatogram.
NAMPT is the rate limiting enzyme in the salvage pathway whereby cells sequentially convert nicotinamide into nicotinamide […] mononucleotide (NMN) and NAD (Preiss and Handler, 1958). If active variants of P7C3 indeed bind to the NAMPT dimer in a manner fostering its activity, then these compounds should enhance the flux of nicotinamide through the salvage pathway. To test this hypothesis, ^14C-labeled nicotinamide was administered to cultured U2OS cells. Six hours later, cells were lysed in perchloric acid and cleared by centrifugation so that soluble materials could be separated by thin layer chromatography (TLC) followed by autoradiography.
Logarithmically growing cells cultured in 6-well plates were treated with doxorubicin (0.5 μM) for 48 hours. […] Afterwards, the screen was scanned using the Typhoon scanner, and the ^14C-labeled compounds were quantified using Image J.

For COc1cccc(NCC(F)Cn2c3ccc(Br)cc3c3cc(Br)ccc32)c1 (stereo not shown) [S10], the “conversion of radiolabeled nicotinamide into NMN and NAD” value was “enhanced conversion of radiolabeled nicotinamide into NMN and NAD”.
